In assay [1] the target is T1, β-secretase (Homo sapiens, UniProt P56817).
T1 construct: purified from a natural source, such as human brain tissue or human 293 cells; endogenous in cells
The experiment in a line: β-secretase assay in the presence of common protease inhibitors (MBP-C125 cleavage, SW-192 ELISA). The class given is biochemical. The conditions noted are these: for IC50: Max Conc not given.

The subject of the next assay is APP. The experiment in a line: Proteolytic activity of β-secretase as a function of pH. The class given is biochemical, human.
The target of assay [2] is T1, β-secretase. Description: Binding of substantially purified β-secretase activity to immobilized lectins. The conditions noted are these: immobilized lectin; Table 2. On the procedure:
Glycosylation of β-secretase has been investigated using various immobilized lectins, and ability of substantially purified β-secretase activity to bind to them was determined. […] A "-" sign signifies less than 20% binding, "+" between […] binding, "++" between 50-75% binding, and "+++" >75% binding.

T1 sequence (P56817 46-501): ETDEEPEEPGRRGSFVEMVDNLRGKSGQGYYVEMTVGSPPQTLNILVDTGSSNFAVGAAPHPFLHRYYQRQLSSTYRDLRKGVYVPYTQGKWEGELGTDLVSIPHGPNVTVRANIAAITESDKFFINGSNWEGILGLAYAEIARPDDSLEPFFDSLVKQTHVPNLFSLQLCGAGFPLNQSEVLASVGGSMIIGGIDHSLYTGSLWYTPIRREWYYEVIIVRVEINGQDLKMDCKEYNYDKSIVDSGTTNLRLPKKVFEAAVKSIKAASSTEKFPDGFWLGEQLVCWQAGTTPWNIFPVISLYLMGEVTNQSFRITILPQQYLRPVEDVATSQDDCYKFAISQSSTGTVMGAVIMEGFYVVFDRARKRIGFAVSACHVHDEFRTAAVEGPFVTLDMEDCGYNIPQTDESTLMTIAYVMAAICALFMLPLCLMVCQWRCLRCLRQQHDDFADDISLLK

Take `O=c1oc(Cl)c(Cl)c2ccccc12` [3,4-dichloroisocoumarin]: the inhibition at 500 µM at β-secretase [1] (Max Conc 0.5 mM, pH 5.5) is < 25%.

For `CCCCC(NC(=O)C=[N+]=[N-])C(=O)OC` (stereo not drawn) [diazoacetylnorleucylmethyl ester], on β-secretase [1] (pH 5.5), the 50% inhibitory concentration (IC50) is > 5 mM. Take `c1cnc2c(c1)ccc1ncccc12` [m-phenanthroline]: the “inhibition of β-secretase activity (in words)” value at β-secretase [1] is “also does so”. For the same molecule, the 50% inhibitory concentration (IC50) on β-secretase [1] (pH 5.5) was found to be 7 mM. On to `c1cnc2c(c1)ccc1cccnc12` [o-phenanthroline], for which, on β-secretase [1], the “inhibition of β-secretase activity (in words)” value was “inhibits poorly”. Besides, the IC50 at β-secretase [1] (pH 5.5) turned out to be 7 mM. For “β-secretase: enzyme which cleaves APP at the amino-terminus of β-amyloid peptide, purified from human 293 cells or human brain”, in the assay on APP, the “pH of peak proteolytic activity” value lay in the range of 5 to 5.5. For the same molecule, in the assay with APP (pH 7.5 and above), the proteolytic activity result is reported as “very low activity”.

B1: peanut (PNA): lectin (protein, UniProt P02872 24-273, looked up)
Galactose-binding lectin: AETVSFNFNSFSEGNPAINFQGDVTVLSNGNIQLTNLNKVNSVGRVLYAMPVRIWSSATGNVASFLTSFSFEMKDIKDYDPADGIIFFIAPEDTQIPAGSIGGGTLGVSDTKGAGHFVGVEFDTYSNSEYNDPPTDHVGIDVNSVDSVKTVPWNSVSGAVVKVTVIYDSSTKTLSVAVTNDNGDITTIAQVVDLKAKLPERVKFGFSASGSLGGRQIHLIRSWSFTSTLITTTRRSIDNNEKKIMNMASA
Regarding B1, the “β-Secretase Binding” value with β-secretase [2] was “+ (between 24-40% binding)”.
